Data as given in ChEMBL document CHEMBL3991601, “The target landscape of clinical kinase drugs” (Science, 2017).
Activity calls are given as the source filed them. Cut-off read from the data, not from the text of the source, for most assays here: actives have a measured Kd and inactives only a lower limit.

Columns and labels:
[1] = target: GTP-binding protein 4 (Homo sapiens, UniProt Q9BZE4)
[2] = target: T1, MAP kinase-activated protein kinase 5 (Homo sapiens, UniProt Q8IW41)
T1 sequence (Q8IW41 whole entry): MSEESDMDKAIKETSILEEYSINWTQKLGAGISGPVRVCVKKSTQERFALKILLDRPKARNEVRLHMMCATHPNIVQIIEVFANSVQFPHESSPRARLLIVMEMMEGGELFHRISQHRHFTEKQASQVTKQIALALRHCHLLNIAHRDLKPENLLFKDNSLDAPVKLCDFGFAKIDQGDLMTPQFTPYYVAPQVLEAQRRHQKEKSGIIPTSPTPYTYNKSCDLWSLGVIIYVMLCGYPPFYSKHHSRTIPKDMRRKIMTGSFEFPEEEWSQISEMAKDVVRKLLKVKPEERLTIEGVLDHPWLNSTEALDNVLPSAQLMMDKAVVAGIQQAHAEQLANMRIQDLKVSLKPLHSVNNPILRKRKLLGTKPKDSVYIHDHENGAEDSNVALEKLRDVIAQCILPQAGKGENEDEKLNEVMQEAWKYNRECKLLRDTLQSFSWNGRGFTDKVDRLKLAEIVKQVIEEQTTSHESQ

[3] = target: Cyclin-dependent kinase 12 (Homo sapiens, UniProt Q9NYV4)
[4] = target: T2, Serine/threonine-protein kinase 4 (Homo sapiens, UniProt Q13043)
T2 sequence (Q13043 whole entry): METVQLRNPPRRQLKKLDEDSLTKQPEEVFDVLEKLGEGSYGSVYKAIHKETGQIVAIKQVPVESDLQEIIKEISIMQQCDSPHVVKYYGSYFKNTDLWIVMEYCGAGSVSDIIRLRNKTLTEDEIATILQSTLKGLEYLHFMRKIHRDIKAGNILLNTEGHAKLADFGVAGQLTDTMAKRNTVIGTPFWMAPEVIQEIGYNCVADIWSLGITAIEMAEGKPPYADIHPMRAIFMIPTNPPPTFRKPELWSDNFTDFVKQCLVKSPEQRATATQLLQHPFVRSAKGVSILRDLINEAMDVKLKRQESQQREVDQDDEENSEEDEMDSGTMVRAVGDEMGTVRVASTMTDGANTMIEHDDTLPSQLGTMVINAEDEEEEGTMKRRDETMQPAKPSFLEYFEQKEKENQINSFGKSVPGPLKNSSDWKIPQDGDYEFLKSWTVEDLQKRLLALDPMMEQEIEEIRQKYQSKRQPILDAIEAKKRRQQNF

[5] = target: Dual specificity protein kinase CLK1 (Homo sapiens, UniProt P49759)
[6] = target: TGF-beta receptor type-2 (Homo sapiens, UniProt P37173)
[7] = target: Mitogen-activated protein kinase 1 (Homo sapiens, UniProt P28482)
[8] = target: Casein kinase II subunit alpha' (Homo sapiens, UniProt P19784)
[9] = target: Cyclin-dependent kinase 13 (Homo sapiens, UniProt Q14004)
[10] = target: RAC-alpha serine/threonine-protein kinase (Homo sapiens, UniProt P31749)
[11] = target: Ephrin type-A receptor 5 (Homo sapiens, UniProt P54756)
[12] = target: GTP-binding nuclear protein Ran (Homo sapiens, UniProt P62826)
[13] = target: Mitogen-activated protein kinase 10 (Homo sapiens, UniProt P53779)
[14] = target: T3, Bone morphogenetic protein receptor type-2 (Homo sapiens, UniProt Q13873)
T3 sequence (Q13873 whole entry): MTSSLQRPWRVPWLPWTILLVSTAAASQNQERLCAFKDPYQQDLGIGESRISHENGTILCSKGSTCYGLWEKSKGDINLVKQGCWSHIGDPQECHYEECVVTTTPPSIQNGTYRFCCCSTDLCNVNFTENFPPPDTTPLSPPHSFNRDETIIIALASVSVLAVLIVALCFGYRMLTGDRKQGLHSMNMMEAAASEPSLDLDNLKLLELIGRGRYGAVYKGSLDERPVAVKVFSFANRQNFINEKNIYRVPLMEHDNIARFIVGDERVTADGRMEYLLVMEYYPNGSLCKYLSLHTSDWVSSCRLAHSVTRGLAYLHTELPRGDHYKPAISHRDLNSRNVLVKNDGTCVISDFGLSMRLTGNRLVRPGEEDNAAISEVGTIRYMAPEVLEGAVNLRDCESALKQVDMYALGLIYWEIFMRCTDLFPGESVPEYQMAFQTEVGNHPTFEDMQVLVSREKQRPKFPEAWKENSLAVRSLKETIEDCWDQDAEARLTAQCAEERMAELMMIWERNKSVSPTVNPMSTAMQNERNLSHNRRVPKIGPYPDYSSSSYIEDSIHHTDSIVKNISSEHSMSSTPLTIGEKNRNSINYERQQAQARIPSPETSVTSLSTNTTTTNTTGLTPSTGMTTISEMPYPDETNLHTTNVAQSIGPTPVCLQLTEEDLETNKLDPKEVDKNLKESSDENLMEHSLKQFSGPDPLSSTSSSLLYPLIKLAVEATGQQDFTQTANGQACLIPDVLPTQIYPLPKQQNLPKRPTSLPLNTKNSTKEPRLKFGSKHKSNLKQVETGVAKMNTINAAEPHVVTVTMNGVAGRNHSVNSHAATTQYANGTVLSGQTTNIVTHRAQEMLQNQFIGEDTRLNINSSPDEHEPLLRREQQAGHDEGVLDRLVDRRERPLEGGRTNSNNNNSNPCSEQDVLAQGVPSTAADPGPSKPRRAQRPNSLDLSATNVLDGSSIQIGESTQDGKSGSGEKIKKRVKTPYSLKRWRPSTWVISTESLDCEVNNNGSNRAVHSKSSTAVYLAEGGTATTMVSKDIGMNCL

[15] = target: TRAF2 and NCK-interacting protein kinase (Homo sapiens, UniProt Q9UKE5)
Note: in the data inactive means no Kd found up to 30 µM.

Chain of Cyclin-dependent kinase 12 (Q9NYV4 whole entry): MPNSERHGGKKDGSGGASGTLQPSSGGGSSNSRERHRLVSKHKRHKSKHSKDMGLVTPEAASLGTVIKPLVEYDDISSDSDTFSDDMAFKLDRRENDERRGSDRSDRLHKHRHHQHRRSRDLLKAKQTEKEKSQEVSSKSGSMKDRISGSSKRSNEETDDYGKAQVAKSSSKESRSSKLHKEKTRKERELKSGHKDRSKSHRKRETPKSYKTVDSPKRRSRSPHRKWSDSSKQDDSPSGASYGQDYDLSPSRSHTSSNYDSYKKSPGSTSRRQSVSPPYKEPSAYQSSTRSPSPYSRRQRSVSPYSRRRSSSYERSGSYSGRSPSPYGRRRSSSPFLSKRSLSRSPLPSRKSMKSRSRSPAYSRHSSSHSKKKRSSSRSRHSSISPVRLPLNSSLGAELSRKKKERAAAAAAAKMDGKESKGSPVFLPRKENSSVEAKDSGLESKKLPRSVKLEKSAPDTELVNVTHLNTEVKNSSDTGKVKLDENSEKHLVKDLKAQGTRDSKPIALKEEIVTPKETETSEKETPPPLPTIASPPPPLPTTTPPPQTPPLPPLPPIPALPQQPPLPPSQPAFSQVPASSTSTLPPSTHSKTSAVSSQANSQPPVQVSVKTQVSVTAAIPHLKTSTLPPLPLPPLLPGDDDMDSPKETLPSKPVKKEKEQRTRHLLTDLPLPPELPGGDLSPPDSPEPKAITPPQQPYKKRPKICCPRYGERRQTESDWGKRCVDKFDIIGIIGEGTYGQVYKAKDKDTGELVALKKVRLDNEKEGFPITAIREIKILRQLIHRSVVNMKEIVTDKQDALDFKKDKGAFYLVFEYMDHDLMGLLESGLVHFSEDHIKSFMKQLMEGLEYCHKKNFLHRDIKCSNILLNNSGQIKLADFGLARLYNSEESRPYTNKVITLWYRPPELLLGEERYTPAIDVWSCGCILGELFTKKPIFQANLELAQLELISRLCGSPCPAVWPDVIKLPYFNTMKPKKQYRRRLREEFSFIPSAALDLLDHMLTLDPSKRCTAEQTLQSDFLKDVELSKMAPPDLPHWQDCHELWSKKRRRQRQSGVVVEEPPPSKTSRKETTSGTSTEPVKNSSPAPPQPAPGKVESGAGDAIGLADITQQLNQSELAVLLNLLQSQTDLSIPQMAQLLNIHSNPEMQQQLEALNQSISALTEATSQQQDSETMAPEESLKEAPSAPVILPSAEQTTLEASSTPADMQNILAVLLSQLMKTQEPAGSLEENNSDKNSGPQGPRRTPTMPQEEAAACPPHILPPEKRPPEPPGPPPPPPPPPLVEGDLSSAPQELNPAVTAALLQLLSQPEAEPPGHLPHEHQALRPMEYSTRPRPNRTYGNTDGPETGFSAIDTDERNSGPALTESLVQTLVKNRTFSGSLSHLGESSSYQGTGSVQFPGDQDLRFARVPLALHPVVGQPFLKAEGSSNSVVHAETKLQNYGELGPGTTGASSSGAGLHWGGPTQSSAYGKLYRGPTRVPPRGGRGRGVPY
Chain of RAC-alpha serine/threonine-protein kinase (P31749 whole entry): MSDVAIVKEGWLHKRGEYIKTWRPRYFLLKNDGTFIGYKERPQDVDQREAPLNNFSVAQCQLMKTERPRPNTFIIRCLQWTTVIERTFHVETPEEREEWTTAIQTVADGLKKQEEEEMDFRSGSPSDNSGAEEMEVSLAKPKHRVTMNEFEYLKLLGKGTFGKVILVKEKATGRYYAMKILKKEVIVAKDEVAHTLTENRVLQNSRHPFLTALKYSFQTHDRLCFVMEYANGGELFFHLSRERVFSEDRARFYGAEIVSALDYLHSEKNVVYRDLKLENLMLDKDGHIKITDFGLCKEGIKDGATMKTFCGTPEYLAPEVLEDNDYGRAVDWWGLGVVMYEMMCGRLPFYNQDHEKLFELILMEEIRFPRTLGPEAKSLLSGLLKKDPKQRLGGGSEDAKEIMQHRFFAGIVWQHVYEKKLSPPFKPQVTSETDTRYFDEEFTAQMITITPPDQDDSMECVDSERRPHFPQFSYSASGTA
Chain of TRAF2 and NCK-interacting protein kinase (Q9UKE5 whole entry): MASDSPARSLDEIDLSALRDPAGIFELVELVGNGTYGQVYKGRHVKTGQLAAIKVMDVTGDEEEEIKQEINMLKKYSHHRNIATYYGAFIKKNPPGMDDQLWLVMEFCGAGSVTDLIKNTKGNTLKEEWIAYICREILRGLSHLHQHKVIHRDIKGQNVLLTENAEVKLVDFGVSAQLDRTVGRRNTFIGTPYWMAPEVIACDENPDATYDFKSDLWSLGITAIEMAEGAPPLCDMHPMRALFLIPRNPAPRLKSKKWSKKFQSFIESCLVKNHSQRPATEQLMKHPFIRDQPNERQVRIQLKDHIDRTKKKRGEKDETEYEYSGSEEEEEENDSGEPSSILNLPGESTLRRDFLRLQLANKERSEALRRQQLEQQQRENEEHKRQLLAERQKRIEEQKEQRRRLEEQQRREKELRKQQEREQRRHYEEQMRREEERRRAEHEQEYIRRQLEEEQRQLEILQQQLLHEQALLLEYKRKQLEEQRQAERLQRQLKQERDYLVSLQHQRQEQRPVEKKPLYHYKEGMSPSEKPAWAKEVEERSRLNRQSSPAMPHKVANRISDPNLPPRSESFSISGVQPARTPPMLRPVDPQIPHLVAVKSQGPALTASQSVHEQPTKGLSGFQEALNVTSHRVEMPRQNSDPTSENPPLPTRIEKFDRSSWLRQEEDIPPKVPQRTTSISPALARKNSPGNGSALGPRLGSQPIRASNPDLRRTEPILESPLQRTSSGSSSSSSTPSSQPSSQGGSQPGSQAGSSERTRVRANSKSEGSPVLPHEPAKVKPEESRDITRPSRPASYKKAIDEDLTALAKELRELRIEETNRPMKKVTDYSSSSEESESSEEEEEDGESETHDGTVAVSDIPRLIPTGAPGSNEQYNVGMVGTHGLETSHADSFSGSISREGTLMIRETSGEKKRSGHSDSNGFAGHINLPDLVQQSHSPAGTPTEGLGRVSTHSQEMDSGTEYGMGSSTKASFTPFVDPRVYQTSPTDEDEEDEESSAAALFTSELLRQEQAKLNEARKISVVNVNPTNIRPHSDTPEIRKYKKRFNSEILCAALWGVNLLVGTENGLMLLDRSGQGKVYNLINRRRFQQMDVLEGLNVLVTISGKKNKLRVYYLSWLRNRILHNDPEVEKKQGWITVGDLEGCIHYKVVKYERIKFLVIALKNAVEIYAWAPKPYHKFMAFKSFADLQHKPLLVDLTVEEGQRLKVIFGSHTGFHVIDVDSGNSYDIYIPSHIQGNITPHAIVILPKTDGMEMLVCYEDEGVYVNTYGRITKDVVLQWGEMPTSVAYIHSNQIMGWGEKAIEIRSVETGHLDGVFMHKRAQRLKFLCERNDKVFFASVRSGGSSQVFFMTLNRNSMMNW
Chain of Casein kinase II subunit alpha' (P19784 whole entry): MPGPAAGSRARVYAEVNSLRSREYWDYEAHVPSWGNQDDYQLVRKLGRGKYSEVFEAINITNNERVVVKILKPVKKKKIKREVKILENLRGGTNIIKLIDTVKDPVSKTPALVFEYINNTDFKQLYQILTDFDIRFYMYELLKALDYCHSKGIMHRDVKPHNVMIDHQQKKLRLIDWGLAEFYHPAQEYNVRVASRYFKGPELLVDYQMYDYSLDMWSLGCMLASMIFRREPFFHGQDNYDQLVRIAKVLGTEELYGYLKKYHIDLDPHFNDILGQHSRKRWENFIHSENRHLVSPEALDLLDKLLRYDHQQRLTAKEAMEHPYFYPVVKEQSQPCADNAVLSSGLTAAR
Chain of Mitogen-activated protein kinase 1 (P28482 whole entry): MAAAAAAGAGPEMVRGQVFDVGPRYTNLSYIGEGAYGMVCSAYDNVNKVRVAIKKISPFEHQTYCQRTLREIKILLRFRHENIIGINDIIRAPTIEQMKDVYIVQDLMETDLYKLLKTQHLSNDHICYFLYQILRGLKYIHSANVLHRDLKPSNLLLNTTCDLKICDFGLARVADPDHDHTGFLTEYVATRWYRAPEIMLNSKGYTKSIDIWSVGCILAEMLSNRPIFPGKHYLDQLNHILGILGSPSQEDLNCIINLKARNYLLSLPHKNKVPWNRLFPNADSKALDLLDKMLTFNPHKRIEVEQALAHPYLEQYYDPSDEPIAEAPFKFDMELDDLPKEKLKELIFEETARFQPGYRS
Chain of Dual specificity protein kinase CLK1 (P49759 whole entry): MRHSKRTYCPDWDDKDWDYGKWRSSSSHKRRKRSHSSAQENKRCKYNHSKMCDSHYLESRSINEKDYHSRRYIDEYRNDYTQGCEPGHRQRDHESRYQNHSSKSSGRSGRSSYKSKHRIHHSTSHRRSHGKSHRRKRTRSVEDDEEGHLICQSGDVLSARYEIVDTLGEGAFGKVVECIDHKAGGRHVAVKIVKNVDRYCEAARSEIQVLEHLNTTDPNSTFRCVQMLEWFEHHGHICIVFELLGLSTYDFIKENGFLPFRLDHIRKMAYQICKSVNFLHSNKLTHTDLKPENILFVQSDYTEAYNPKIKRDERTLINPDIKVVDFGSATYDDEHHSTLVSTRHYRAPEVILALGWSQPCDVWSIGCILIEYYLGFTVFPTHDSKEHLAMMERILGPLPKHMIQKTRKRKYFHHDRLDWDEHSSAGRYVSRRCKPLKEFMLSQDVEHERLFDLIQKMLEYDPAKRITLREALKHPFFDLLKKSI
Chain of Mitogen-activated protein kinase 10 (P53779 whole entry): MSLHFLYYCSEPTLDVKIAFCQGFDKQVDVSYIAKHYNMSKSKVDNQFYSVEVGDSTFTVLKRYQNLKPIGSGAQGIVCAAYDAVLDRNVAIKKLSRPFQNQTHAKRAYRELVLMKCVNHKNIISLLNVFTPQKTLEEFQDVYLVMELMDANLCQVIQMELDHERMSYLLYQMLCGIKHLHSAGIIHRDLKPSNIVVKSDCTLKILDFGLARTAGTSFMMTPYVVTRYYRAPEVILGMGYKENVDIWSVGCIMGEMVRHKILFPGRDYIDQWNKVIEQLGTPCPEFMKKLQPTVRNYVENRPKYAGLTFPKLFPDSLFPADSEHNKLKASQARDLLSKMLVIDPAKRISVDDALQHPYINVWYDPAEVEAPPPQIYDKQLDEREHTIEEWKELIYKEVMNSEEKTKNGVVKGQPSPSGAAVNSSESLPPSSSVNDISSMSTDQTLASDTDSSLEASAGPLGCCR

Row | Structure (SMILES) | Kd [1] | Kd [2] | Kd [3] | Kd [4] | Kd [5] | Kd [6] | Kd [7] | Kd [8] | Kd [9] | Kd [10] | Kd [11] | Kd [12] | Kd [13] | Kd [14] | Kd [15]
1 | COc1cc2ncnc3c2cc1OCCCCCN(C)Cc1ccc(Br)cc1N3 [JNJ-26483327] | > 30 µM (inactive) | > 30 µM (inactive) | > 30 µM (inactive) | > 30 µM (inactive) | > 30 µM (inactive) | > 30 µM (inactive) | > 30 µM (inactive) | > 30 µM (inactive) | > 30 µM (inactive) | > 30 µM (inactive) | > 30 µM (inactive) | > 30 µM (inactive) | > 30 µM (inactive) | > 30 µM (inactive) | > 30 µM (inactive)
2 | COc1cc2ncnc(Nc3ccc(F)c(Cl)c3)c2cc1NC(=O)/C=C/CN1CCCCC1 [DACOMITINIB ANHYDROUS] | > 30 µM (inactive) | > 30 µM (inactive) | > 30 µM (inactive) | > 30 µM (inactive) | > 30 µM (inactive) | > 30 µM (inactive) | > 30 µM (inactive) | > 30 µM (inactive) | > 30 µM (inactive) | > 30 µM (inactive) | > 30 µM (inactive) | > 30 µM (inactive) | > 30 µM (inactive) | > 30 µM (inactive) | > 30 µM (inactive)
3 | C#Cc1cccc(Nc2ncnc3cc4c(cc23)OCCOCCOCCO4)c1 [ICOTINIB] | > 30 µM (inactive) | > 30 µM (inactive) | > 30 µM (inactive) | > 30 µM (inactive) | > 30 µM (inactive) | > 30 µM (inactive) | > 30 µM (inactive) | > 30 µM (inactive) | > 30 µM (inactive) | > 30 µM (inactive) | > 30 µM (inactive) | > 30 µM (inactive) | > 30 µM (inactive) | > 30 µM (inactive) | > 30 µM (inactive)
4 | Cc1cc(C(=O)Nc2cc(Oc3ccc4nc(NC(=O)C5CC5)cn4n3)ccc2C)n(C)n1 [TAK-593] | > 30 µM (inactive) | > 30 µM (inactive) | > 30 µM (inactive) | > 30 µM (inactive) | > 30 µM (inactive) | > 30 µM (inactive) | > 30 µM (inactive) | > 30 µM (inactive) | > 30 µM (inactive) | > 30 µM (inactive) | > 30 µM (inactive) | > 30 µM (inactive) | > 30 µM (inactive) | > 30 µM (inactive) | > 30 µM (inactive)
5 | COc1cc2ncnc(Nc3ccc(O)cc3)c2cc1OC [WHI-P131] | > 30 µM (inactive) | > 30 µM (inactive) | > 30 µM (inactive) | > 30 µM (inactive) | > 30 µM (inactive) | > 30 µM (inactive) | > 30 µM (inactive) | > 30 µM (inactive) | > 30 µM (inactive) | > 30 µM (inactive) | > 30 µM (inactive) | > 30 µM (inactive) | > 30 µM (inactive) | > 30 µM (inactive) | > 30 µM (inactive)
6 | CN1CCN(c2nc(C3=C(c4c[nH]c5ccccc45)C(=O)NC3=O)c3ccccc3n2)CC1 [SOTRASTAURIN] | 8.2 µM | > 30 µM (inactive) | > 30 µM (inactive) | > 30 µM (inactive) | > 30 µM (inactive) | > 30 µM (inactive) | > 30 µM (inactive) | > 30 µM (inactive) | > 30 µM (inactive) | > 30 µM (inactive) | > 30 µM (inactive) | > 30 µM (inactive) | > 30 µM (inactive) | > 30 µM (inactive) | 0.038 µM
7 | CC1(COc2ccc3c(c2)ncn3-c2ccc3cccc(N4CCC(N)CC4)c3n2)COC1 [CRENOLANIB] | > 30 µM (inactive) | > 30 µM (inactive) | > 30 µM (inactive) | 0.702 µM (active) | > 30 µM (inactive) | > 30 µM (inactive) | > 30 µM (inactive) | > 30 µM (inactive) | > 30 µM (inactive) | > 30 µM (inactive) | > 30 µM (inactive) | > 30 µM (inactive) | > 30 µM (inactive) | > 30 µM (inactive) | 0.107 µM
8 | COc1cc(F)c(F)c(Nc2ccc(I)cc2F)c1NS(=O)(=O)C1(C[C@H](O)CO)CC1 [REFAMETINIB] | > 30 µM (inactive) | > 30 µM (inactive) | > 30 µM (inactive) | > 30 µM (inactive) | > 30 µM (inactive) | > 30 µM (inactive) | > 30 µM (inactive) | > 30 µM (inactive) | > 30 µM (inactive) | > 30 µM (inactive) | > 30 µM (inactive) | > 30 µM (inactive) | 0.036 µM (active) | > 30 µM (inactive) | > 30 µM (inactive)
9 | COc1cccc2cc(-c3nc([C@H]4CC[C@H](C(=O)O)CC4)n4ncnc(N)c34)[nH]c12 [OSI-027] | > 30 µM (inactive) | > 30 µM (inactive) | > 30 µM (inactive) | > 30 µM (inactive) | > 30 µM (inactive) | > 30 µM (inactive) | > 30 µM (inactive) | 1.6 µM (active) | > 30 µM (inactive) | > 30 µM (inactive) | > 30 µM (inactive) | > 30 µM (inactive) | 1.62 µM | 2.1 µM | > 30 µM (inactive)
10 | CNC(=O)c1ccc(Nc2ncc(C(F)(F)F)c(NCc3nccnc3N(C)S(C)(=O)=O)n2)cc1 [DEFACTINIB] | > 30 µM (inactive) | > 30 µM (inactive) | 0.73 µM (active) | 2.45 µM (active) | > 30 µM (inactive) | > 30 µM (inactive) | > 30 µM (inactive) | 1.2 µM (active) | 3.11 µM (active) | > 30 µM (inactive) | > 30 µM (inactive) | > 30 µM (inactive) | > 30 µM (inactive) | > 30 µM (inactive) | > 30 µM (inactive)
11 | Cc1ccc(C(=O)Nc2ccc(Oc3cc4cnn(C)c4cc3-c3cn[nH]c3)c(F)c2)c(=O)n1-c1ccc(F)cc1 [MERESTINIB] | > 30 µM (inactive) | > 30 µM (inactive) | > 30 µM (inactive) | > 30 µM (inactive) | > 30 µM (inactive) | > 30 µM (inactive) | > 30 µM (inactive) | > 30 µM (inactive) | > 30 µM (inactive) | > 30 µM (inactive) | > 30 µM (inactive) | > 30 µM (inactive) | > 30 µM (inactive) | > 30 µM (inactive) | > 30 µM (inactive)
